Experimental data from PMC3914206.

How the values were obtained:
Format in all cases: binding
Conditions in all cases: Compound Concentration 10 µM
[1] = molecular target: T1, panel of 442 kinases (Homo sapiens, UniProt P07333)
T1 construct: purchased KINOMEscan
Description: (§1) We assessed the selectivity of members of this scaffold using the KINOMEscan methodology across a near comprehensive panel of 442 kinases [[18,27]].

[2] = molecular target: T2, panel of 442 kinases (Homo sapiens, UniProt P32298)
T2 construct: purchased KINOMEscan
T2 sequence (P32298 whole entry): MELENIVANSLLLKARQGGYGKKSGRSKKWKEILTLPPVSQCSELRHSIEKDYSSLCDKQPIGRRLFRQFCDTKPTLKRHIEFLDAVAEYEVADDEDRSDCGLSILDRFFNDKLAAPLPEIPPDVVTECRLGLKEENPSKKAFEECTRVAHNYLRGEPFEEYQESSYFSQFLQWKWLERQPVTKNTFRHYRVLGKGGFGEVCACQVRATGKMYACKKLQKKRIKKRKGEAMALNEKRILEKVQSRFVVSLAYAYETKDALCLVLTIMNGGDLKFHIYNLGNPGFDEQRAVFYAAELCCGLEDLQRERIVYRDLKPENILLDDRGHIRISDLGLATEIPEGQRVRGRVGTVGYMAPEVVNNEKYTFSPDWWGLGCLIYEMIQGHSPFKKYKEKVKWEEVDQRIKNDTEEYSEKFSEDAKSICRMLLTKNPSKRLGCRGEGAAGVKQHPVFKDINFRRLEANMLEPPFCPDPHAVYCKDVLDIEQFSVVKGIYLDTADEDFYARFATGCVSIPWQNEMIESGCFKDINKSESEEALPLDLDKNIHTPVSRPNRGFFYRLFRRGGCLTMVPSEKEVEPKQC
Description: as §1

[3] = molecular target: T3, panel of 442 kinases (Homo sapiens, UniProt P42679)
T3 construct: purchased KINOMEscan
T3 sequence (P42679 1-507): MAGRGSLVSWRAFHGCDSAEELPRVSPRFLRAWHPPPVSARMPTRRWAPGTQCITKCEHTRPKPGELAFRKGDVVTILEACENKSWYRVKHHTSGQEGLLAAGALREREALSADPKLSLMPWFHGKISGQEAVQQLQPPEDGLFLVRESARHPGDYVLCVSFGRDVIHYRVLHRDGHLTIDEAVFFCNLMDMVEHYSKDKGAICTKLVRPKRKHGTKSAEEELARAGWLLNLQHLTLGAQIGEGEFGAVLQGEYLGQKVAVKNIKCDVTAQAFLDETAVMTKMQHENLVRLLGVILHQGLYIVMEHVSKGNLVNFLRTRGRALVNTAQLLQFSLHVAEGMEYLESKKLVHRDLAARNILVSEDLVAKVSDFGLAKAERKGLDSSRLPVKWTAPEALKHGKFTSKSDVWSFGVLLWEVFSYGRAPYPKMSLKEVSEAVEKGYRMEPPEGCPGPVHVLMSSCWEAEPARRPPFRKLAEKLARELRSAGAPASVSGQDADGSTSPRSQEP
Description: as §1

T1 sequence (P07333 20-972): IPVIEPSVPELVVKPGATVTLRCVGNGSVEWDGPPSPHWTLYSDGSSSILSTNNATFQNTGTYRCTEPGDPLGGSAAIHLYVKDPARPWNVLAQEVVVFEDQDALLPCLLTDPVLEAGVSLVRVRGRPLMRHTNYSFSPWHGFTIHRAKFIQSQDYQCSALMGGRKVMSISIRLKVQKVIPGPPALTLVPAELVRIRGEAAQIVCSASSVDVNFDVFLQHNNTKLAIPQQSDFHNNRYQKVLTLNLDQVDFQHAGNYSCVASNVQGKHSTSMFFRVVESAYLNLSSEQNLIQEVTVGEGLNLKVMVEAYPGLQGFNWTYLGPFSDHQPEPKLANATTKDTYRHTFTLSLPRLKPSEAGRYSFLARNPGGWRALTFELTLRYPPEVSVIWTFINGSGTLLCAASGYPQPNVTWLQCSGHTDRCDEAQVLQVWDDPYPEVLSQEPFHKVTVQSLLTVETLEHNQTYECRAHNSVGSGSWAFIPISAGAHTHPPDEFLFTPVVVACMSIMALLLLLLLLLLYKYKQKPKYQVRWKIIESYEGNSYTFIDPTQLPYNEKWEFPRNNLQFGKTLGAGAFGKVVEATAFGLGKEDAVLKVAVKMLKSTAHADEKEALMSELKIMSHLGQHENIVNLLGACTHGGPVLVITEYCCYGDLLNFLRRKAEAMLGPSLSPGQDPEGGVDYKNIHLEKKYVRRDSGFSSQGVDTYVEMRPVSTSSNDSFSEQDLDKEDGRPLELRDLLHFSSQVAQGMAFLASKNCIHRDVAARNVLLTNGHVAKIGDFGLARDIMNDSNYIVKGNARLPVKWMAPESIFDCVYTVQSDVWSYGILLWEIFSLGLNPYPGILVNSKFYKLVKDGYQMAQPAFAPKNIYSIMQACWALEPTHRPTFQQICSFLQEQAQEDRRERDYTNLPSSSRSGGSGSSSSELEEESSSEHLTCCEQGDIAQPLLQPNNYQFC

**Q.** For `COc1cc(C(=O)N2CCC(N3CCN(C)CC3)CC2)ccc1Nc1ncc2c(n1)N(C1CCCC1)c1ccccc1C(=O)N2C` [Compound 25, 11-cyclopentyl-2-((2-methoxy-4-(4-(4-methylpiperazin-1-yl)piperidine-1-carbonyl)phenyl)amino)-5-methyl-5H-benzo[e]pyrimido[5,4-b][1,4]diazepin-6(11H)-one], which “KINOMEscan: CSF1R” value [1] is on record?
**A.** 56

**Q.** And the “KINOMEscan: GRK4” value [2]?
**A.** 98

**Q.** What about the “KINOMEscan: CTK” value [3] of the same compound?
**A.** 100

**Q.** Which “KINOMEscan: CSF1R” value [1] does the source give for `COc1cc(C(=O)N2CCC(N3CCN(C)CC3)CC2)ccc1Nc1ncc2c(n1)N1CCc3cccc(c31)C(=O)N2C` [Compound 24] here?
**A.** 57

**Q.** With `COc1cc(C(=O)N2CCC(N3CCN(C)CC3)CC2)ccc1Nc1ncc2c(n1)N(C)c1ccccc1C(=O)N2C` [15 (LRRK2-IN-1)] as the compound, how does the “KINOMEscan: CSF1R” value [1] read?
**A.** 98

**Q.** And the “KINOMEscan: GRK4” value [2]?
**A.** 86

**Q.** What about the “KINOMEscan: CTK” value [3] of the same compound?
**A.** 100

**Q.** Which “KINOMEscan: CSF1R” value [1] does the source give for `CCOc1cc(C(=O)N2CCC(N3CCN(C)CC3)CC2)ccc1Nc1ncc2c(n1)N(C1CCCC1)c1ccccc1C(=O)N2C` [Compound 26] here?
**A.** 100

**Q.** And the “KINOMEscan: GRK4” value [2]?
**A.** 100

**Q.** And the “KINOMEscan: CTK” value [3]?
**A.** 89
